Values quoted from earlier work in US20260140098A1, “METHOD FOR TREATING PLASMA SAMPLE CONTAINING (7aS,2'S)-2-OXO-CLOPIDOGREL AND METHOD FOR DETERMINING THE SAME” (CHENGDU SHIBEIKANG BIOMEDICAL TECHNOLOGY CO., LTD., priority 2021, published 2026).

Key:
CYP2C19 = CYP2C19 (Homo sapiens, UniProt P33261); settings: by CYP2C19; cited from earlier work
CYP1A2 = CYP1A2 (Homo sapiens, UniProt P05177); settings: by CYP1A2; cited from earlier work
CYP2B6 = CYP2B6 (Homo sapiens, UniProt P20813); settings: by CYP2B6; cited from earlier work
CYP2B6, sequence (P20813 whole entry): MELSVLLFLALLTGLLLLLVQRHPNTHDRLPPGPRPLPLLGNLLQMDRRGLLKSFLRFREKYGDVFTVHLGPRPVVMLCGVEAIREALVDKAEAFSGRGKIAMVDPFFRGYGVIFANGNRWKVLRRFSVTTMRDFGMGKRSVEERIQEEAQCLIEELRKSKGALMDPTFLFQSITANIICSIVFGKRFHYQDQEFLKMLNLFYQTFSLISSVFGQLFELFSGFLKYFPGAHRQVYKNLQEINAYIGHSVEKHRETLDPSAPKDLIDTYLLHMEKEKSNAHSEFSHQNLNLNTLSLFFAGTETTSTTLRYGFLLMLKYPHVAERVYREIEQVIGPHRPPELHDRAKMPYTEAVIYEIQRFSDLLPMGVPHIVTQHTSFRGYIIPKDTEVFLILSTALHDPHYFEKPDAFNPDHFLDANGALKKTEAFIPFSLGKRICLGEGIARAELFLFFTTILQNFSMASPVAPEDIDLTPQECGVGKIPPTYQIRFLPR

CYP2C19, sequence (P33261 whole entry): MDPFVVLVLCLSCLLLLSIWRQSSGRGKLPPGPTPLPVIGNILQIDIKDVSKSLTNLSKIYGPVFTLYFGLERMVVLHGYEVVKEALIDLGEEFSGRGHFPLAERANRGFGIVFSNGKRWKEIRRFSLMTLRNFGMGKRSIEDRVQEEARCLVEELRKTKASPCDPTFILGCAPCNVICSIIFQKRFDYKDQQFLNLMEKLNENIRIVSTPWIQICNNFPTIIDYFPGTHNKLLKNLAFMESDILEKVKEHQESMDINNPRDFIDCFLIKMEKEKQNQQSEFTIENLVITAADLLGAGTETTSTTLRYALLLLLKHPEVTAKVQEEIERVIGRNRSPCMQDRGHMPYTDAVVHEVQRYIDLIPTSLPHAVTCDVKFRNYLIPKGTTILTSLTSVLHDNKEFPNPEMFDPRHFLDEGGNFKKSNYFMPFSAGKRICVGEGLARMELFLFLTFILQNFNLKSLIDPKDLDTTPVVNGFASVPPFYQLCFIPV
CYP1A2, sequence (P05177 whole entry): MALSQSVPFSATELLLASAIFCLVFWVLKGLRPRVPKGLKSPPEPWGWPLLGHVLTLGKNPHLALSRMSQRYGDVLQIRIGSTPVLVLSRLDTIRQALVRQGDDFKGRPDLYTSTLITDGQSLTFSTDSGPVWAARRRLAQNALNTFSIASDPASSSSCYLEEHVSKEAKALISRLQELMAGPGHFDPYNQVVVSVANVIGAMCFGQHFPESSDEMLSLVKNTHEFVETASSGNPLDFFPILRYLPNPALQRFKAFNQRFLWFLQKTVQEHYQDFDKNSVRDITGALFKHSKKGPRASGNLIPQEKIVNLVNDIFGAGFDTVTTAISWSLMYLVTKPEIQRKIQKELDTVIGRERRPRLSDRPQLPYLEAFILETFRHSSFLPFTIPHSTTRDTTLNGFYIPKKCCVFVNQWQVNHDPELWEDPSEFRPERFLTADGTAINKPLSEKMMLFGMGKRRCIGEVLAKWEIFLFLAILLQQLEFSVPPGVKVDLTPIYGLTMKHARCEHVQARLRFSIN

With `COC(=O)[C@H](c1ccccc1Cl)N1CCc2sccc2C1` [clopidogrel] as the molecule, how does the “Share of Phase I metabolism into inactive 2-oxo-clopidogrel” value (from here on “Share”) (CYP2C19) read?
Its value is about 45%.

What about the “Share” value (CYP1A2) of the same molecule?
Its value is about 36%.

What about the “Share” value (CYP2B6) of the same molecule?
The value was about 19%.
